Where a name gives a salt, the structure may show the parent alone.
Key:
BACE-1 enzyme = target: T1, BACE-1 enzyme (Homo sapiens, UniProt P56817); assay: BACE Fluorescence Resonance Energy Transfer (FRET) Assay; format: biochemical; conditions: pH 4-4.5, 30 min pre-incubation, about 1.5 hours reaction
T1 construct: purchased R & D Systems 931AS
Method in brief: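 Fluorescence (ex 540, em 585 nm) after ~1.5 h room-temperature cleavage of a quenched rhodamine peptide tracks BACE-1 activity. Enzyme and compound first sit 30 min in pH 4-4.5 acetate buffer with CHAPS, Triton X-100, EDTA, 7.5% DMSO. Values given as IC50 or % inhibition.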

[1] = tested on: Aβ1-40 secreted from HEK293 cells stably expressing wildtype human APP695 protein (HEK-APPwt cells); assay: Aβ Cell Based Assay (Aβ1-40 secretion, ELISA); conditions: Homo sapiens, HEK293, 6 h, 6 hours incubation, reduction of Aβ1-40 secretion
Experimental: Aβ Cell Based Assay Procedure
In the following assay, the proteolytic activity of BACE in cells exposed to varying concentrations of a compound of interest is measured by observing the amount of Aβ1-40 secreted from HEK293 cells (Human Embryonic Kidney epithelial cell line) stably expressing wildtype human APP695 protein (HEK-APPwt cells).
HEK-APPwt cells were grown in high glucose DMEM (Dulbecco's Modified Eagles Medium SIGMA Cat.# D5796) supplemented with 25 mM HEPES (4-(2-hydroxyethyl)-1-piperazineethanesulfonic acid) (pH 7.4) (Invitrogen Cat.# 15630-114), 0.1 mM NEAA (Non-essential Amino Acids) (BioWhittaker Cat. #13-114E), 10% fetal bovine serum (SIGMA Cat. #F4135) and 250 μg/mL hygromycin (Invitrogen Cat. #10687-010) in T-225 flasks at 37° C. with 5% CO2 and humidity control.
Test compounds were initially prepared in DMSO and diluted with DMEM media containing 2% FBS (Fetal bovine serum). Ten standard compound solutions were prepared having a range of concentrations. The standard compound solutions were used to determine the EC50 of the test compound. The range of concentrations chosen may depend on the compound's predicted potency.
To prepare the cells for the assay, a flask containing HEK-APPwt cells were trypsinized briefly (1 mL trypsin), and once the cells detached, 4 mL of 10% FBS-DMEM was added to the flask. The detached cells were centrifuged at 900 rpm for 5 min to form a pellet.
The HEK-APPwt cell pellet was re-suspended with 10 mL DMEM media containing 2% FBS. 80 μL of the cell suspension was added to each well of a 96-well cell culture plate to give 100×10^4cells/ml. 10 μL of a standard compound solution was added to each well of the 96-well cell culture plate followed by 10 μL of Alamar blue solution. The cells were incubated at 37° C. in a 5% CO2 incubator for 6 hours.
At the end of the incubation, the plates were removed from incubator, and the supernatant was collected. A≈1-40 concentration in the medium was measured by using a commercial Aβ1-X ELISA kit (IBL, Japan Cat. #27729). Briefly, the ELISA plates were coated with an anti-human AO (N)(82E1) mouse IgG monoclonal antibody. A horseradish peroxidase conjugated anti-human Aβ11-28 mouse IgG monoclonal antibody was used for detection. The cell culture supernatant was diluted with EIA buffer +protease inhibitors (kit buffer containing protease inhibitors (1 mL PI/30 mL buffer)). A 100 μL aliquot of the diluted supernatant was added to each well of the ELISA plate and incubated for 6 hrs at 4° C. The ELISA plate was washed 8 times with phosphate buffered saline (PBS) containing 0.05% Tween 20.
A 100 μL of detection antibody was then added and incubated for 1 hour at 4° C. The plate was washed 8 times with PBS buffer containing 0.05% Tween 20 followed by addition of 100 μL of the chromogen tetramethylbenzidine (TMB). The plate was incubated in the dark at room temperature for about 30 min and a stop solution (1N H2SO4) was added.
The intensity of the color developed was measured at 450 nm. The optical density at 450 nm (OD450) is proportional to the concentration of human Aβ1-40 secreted by the cell. As a reference, N-[N-(3,5-difluorophenacetyl-L-alanyl)]-S-phenylglycine t-butyl ester (DAPT, a γ-secretase inhibitor) was used to indicate 100% inhibition of BACE activity. Thus, the assay measures the ability of a compound of interest to reduce Aβ1-40 secretion. For select compounds, compound potency is reported in Table 3 as the EC50 by calculating the percent inhibition at all concentration levels and the data were fit with non-linear curve fitting algorithm using GraphPad Prism.

T1 sequence (P56817 46-457 limits assumed): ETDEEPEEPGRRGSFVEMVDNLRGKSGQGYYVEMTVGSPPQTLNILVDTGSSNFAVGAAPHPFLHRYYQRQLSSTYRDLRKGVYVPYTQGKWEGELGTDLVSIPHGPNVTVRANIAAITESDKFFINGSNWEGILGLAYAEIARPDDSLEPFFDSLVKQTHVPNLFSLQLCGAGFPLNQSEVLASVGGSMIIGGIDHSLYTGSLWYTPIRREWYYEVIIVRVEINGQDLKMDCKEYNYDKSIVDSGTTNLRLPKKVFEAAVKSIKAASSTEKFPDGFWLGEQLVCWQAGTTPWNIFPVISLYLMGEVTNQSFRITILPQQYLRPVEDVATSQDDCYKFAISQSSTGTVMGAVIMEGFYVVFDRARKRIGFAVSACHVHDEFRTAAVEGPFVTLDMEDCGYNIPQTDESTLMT

Row | SMILES | IC50 (BACE-1 enzyme) [µM] | EC50 [1] [µM]
1 | CN1CCC(Oc2cccc3nc(C(=O)Nc4nc5cc(-c6cccc(C(F)(F)F)c6)ccc5[nH]4)cn23)CC1 [Example 3, 5-(1-Methyl-piperidin-4-yloxy)-imidazo[1,2-a]pyridine-2-carboxylic acid[5-(3-trifluoromethyl-phenyl)-1H-benzoimidazol-2-yl]-amide] | 1.15 | 4.02
2 | Cc1cccc2nc(C(=O)Nc3nc4cc(OCc5ccccc5)ccc4[nH]3)cn12 [Example 12, 5-Methyl-imidazo[1,2-a]pyridine-2-carboxylic acid (5-benzyloxy-1H-benzoimidazol-2-yl)-amide] | 0.2 | 2.01
3 | Cc1cccc2nc(C(=O)Nc3nc4cc(-c5ccc(C(F)(F)F)cc5)ccc4[nH]3)cn12 [Example 23, 5-Methyl-imidazo[1,2-a]pyridine-2-carboxylic acid [5-(4-trifluoromethyl-phenyl)-1H-benzoimidazol-2-yl]-amide] | 0.27 | 0.66
4 | Cc1cccc2nc(C(=O)Nc3nc4cc(OCc5cccc(C(F)(F)F)c5)ccc4[nH]3)cn12 [Example 26, 5-Methyl-imidazo[1,2-a]pyridine-2-carboxylic acid [5-(3-trifluoromethyl-benzyloxy)-1H-benzoimidazol-2-yl]-amide] | 0.42 | 1.21
5 | Cc1cccc2nc(C(=O)Nc3nc4cc(-c5cccc(Cl)c5)ccc4[nH]3)cn12 [Example 27, 5-Methyl-imidazo[1,2-a]pyridine-2-carboxylic acid [5-(3-chloro-phenyl)-1H-benzoimidazol-2-yl]-amide] | 0.5 | 1.45
6 | Cc1cccn2cc(C(=O)Nc3nc4cc(-c5cccc(OC(F)(F)F)c5)ccc4[nH]3)nc12 [Example 28, 8-Methyl-imidazo[1,2-a]pyridine-2-carboxylic acid [5-(3-trifluoromethoxy-phenyl)-1H-benzoimidazol-2-yl]-amide] | 0.32 | 2.13
7 | Cc1cccn2cc(C(=O)Nc3nc4cc(-c5cccc(C(F)(F)F)c5)ccc4[nH]3)nc12 [Example 32, 8-Methyl-imidazo[1,2-a]pyridine-2-carboxylic acid [5-(3-trifluoromethyl-phenyl)-1H-benzoimidazol-2-yl]-amide] | 0.52 | 1.36
8 | Cc1cccc2nc(C(=O)Nc3nc4cc(OCc5ccccc5C(F)(F)F)ccc4[nH]3)cn12 [Example 42, 5-Methyl-imidazo[1,2-a]pyridine-2-carboxylic acid [5-(2-trifluoromethyl-benzyloxy)-1H-benzoimidazol-2-yl]-amide] | 0.38 | 3.45
9 | Cc1cccc2nc(C(=O)Nc3nc4cc(-c5cccc(OC(F)(F)F)c5)ccc4[nH]3)cn12 [Example 46, 5-Methyl-imidazo[1,2-a]pyridine-2-carboxylic acid [5-(3-trifluoromethoxy-phenyl)-1H-benzoimidazol-2-yl]-amide] | 0.26 | 0.63
10 | Cc1cccc2nc(C(=O)Nc3nc4cc(-c5ccc(Cl)c(C(F)(F)F)c5)ccc4[nH]3)cn12 [Example 47, 5-Methyl-imidazo[1,2-a]pyridine-2-carboxylic acid [5-(4-chloro-3-trifluoromethyl-phenyl)-1H-benzoimidazol-2-yl]-amide] | 0.42 | 0.08
11 | Cc1cccc2nc(C(=O)Nc3nc4cc(-c5ccc(F)c(C(F)(F)F)c5)ccc4[nH]3)cn12 [Example 48, 5-Methyl-imidazo[1,2-a]pyridine-2-carboxylic acid [5-(4-fluoro-3-trifluoromethyl-phenyl)-1H-benzoimidazol-2-yl]-amide] | 0.49 | 0.18
12 | COCCn1c(NC(=O)c2cn3c(C)cccc3n2)nc2cc(-c3ccc(Cl)c(C(F)(F)F)c3)ccc21 [Example 242, 5-Methyl-imidazo[1,2-a]pyridine-2-carboxylic acid [5-(4-chloro-3-trifluoromethyl-phenyl)-1-(2-methoxy-ethyl)-1H-benzoimidazol-2-yl]-amide] | 0.44 | –

Continued by falling IC50 (BACE-1 enzyme), values first:

Row | IC50 (BACE-1 enzyme) [µM] | SMILES | EC50 [1] [µM]
13 | 6.9 | Cc1cccc2nc(C(=O)Nc3nc4cc(-c5ccc(Cl)c(C(F)(F)F)c5)ccc4n3CCN3CCOCC3)cn12 [Example 243, 5-Methyl-imidazo[1,2-a]pyridine-2-carboxylic acid [5-(4-chloro-3-trifluoromethyl-phenyl)-1-(2-morpholin-4-yl-ethyl)-1H-benzoimidazol-2-yl]-amide] | –
14 | 3.64 | O=C(O)c1ccn2cc(C(=O)Nc3nc4cc(-c5cc(F)cc(Cl)c5)ccc4[nH]3)nc2c1 [Example 244, 2-[5-(3-Chloro-5-fluoro-phenyl)-1H-benzoimidazol-2-ylcarbamoyl]-imidazo[1,2-a]pyridine-7-carboxylic acid] | –
15 | 0.98 | O=C(Nc1nc2cc(-c3cccc(C(F)(F)F)c3)ccc2[nH]1)c1cn2c(OC3CCNCC3)cccc2n1 [Example 2, 5-(Piperidin-4-yloxy)-imidazo[1,2-a]pyridine-2-carboxylic acid[5-(3-trifluoromethyl-phenyl)-1H-benzoimidazol-2-yl]-amide trihydrochloride] | 6.4
16 | 0.82 | CCOc1cccc(-c2ccc3[nH]c(NC(=O)c4cn5c(C)cccc5n4)nc3c2)c1 [Example 35, 5-Methyl-imidazo[1,2-a]pyridine-2-carboxylic acid [5-(3-ethoxy-phenyl)-1H-benzoimidazol-2-yl]-amide] | 2.3
17 | 0.55 | Cc1cccc2nc(C(=O)Nc3nc4ccc(-c5cccc(C(F)(F)F)c5)cc4n3C)cn12 [Example 11, 5-Methyl-imidazo[1,2-a]pyridine-2-carboxylic acid [1-methyl-6-(3-trifluoromethyl-phenyl)-1H-benzoimidazol-2-yl]-amide] | 8.83
18 | 0.32 | Cc1cccc2nc(C(=O)Nc3nc4cc(-c5cccc(C(F)(F)F)c5)ccc4[nH]3)cn12 [Example 1, 5-Methyl-imidazo[1,2-a]pyridine-2-carboxylic acid[5-(3-trifluoromethyl-phenyl)-1H-benzoimidazol-2-yl]-amide] | 0.53
19 | 0.3 | CN1CCN(Cc2cccc3nc(C(=O)Nc4nc5cc(-c6cccc(C(F)(F)F)c6)ccc5[nH]4)cn23)CC1 [Example 10, 5-(4-Methyl-piperazin-1-ylmethyl)-imidazo[1,2-a]pyridine-2-carboxylic acid [5-(3-trifluoromethyl-phenyl)-1H-benzoimidazol-2-yl]-amide] | 2.53
20 | 0.3 | Cc1cccc2nc(C(=O)Nc3nc4cc(OCc5cc(F)cc(C(F)(F)F)c5)ccc4[nH]3)cn12 [Example 43, 5-Methyl-imidazo[1,2-a]pyridine-2-carboxylic acid [5-(3-fluoro-5-trifluoromethyl-benzyloxy)-1H-benzoimidazol-2-yl]-amide] | 0.58
21 | 0.16 | Cc1cccc2nc(C(=O)Nc3nc4cc(OCc5ccc(C(F)(F)F)cc5)ccc4[nH]3)cn12 [Example 18, 5-Methyl-imidazo[1,2-a]pyridine-2-carboxylic acid [5-(4-trifluoromethyl-benzyloxy)-1H-benzoimidazol-2-yl]-amide] | 0.42

— patent US20120101093A1, “SUBSTITUTED IMIDAZO[1,2-A]PYRIDINE DERIVATIVES, PHARMACEUTICAL COMPOSITIONS, AND METHODS OF USE AS BETA-SECRETASE INHIBITORS” (HIGH POINT PHARMACEUTICALS, LLC, priority 2009, published 2012)
